Values of other authors in publication PMC9627400 (ACS applied materials & interfaces, 2022).

Target: IL-6
Conditions: read-out: affinity; anti-IL-6 monoclonal antibody; cited from earlier work

siltuximab: an FDA-approved anti-IL-6 monoclonal antibody
Kd: 11.7 nM
